Earlier results in patent US8758823B2, “Method for obtaining non-water-soluble powders having antimicrobial activity, the powders thus obtained and the antibacterial use thereof” (Poly-Bio, priority 2009, dated 2014).

Test system: Staphylococcus aureus
Conditions: quaternary ammonium chloride in aqueous solution; AKZO NOBEL guideline formulation

CCCCCCCCCC[N+](C)(C)CCCCCCCCCC.[Cl-] [ARQUAD 210-50, didecyl dimethyl ammonium chloride]
concentration recommended to obtain the same result (reduction greater than 5 Log): 12 to 16 ppm
